Test results: PubChem BioAssay AID270 (DTP/NCI, 2004)
Several values for one entry are separate records, joined by “and”; a condition that tells them apart may be missing. Equal entries are not always repeated. Inconclusive results are not listed.

Tested on: BDF1 mice, s.c. Lewis lung carcinoma, T/C %
Assay: NCI In Vivo Anticancer Drug Screen. Data for tumor model Lewis Lung Carcinoma (subcutaneous) in B6D2F1 (BDF1) mice
In short: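 Tumor-bearing mice were treated with test compound, and either survival or tumor size was recorded. Values are the treated-group measurement divided by that of the vehicle-treated control group.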

[1] = endpoint: median survival time, dose: 50.0 mg/kg/injection, schedule: Q01DX009 (ip), vehicle: Klucel (hydroxypropylcellulose) (HPC), higher = longer survival
[2] = endpoint: median survival time, dose: 100.0 mg/kg/injection, schedule: Q01DX009 (ip), vehicle: Klucel (hydroxypropylcellulose) (HPC), higher = longer survival
[3] = endpoint: median survival time, dose: 200.0 mg/kg/injection, schedule: Q01DX009 (ip), vehicle: Klucel (hydroxypropylcellulose) (HPC), higher = longer survival

C#C[C@]1(O)CC[C@H]2[C@@H]3CCc4cc(O)ccc4[C@H]3CC[C@@]21C
T/C (endpoint: median survival time, dose: 1.25 mg/kg/injection, schedule: Q02DX009 (ip), vehicle: Klucel (hydroxypropylcellulose) (HPC), higher = longer survival): 88 % of control
T/C (endpoint: median survival time, dose: 2.5 mg/kg/injection, schedule: Q02DX009 (ip), vehicle: Klucel (hydroxypropylcellulose) (HPC), higher = longer survival): 92 % of control
T/C (endpoint: median survival time, dose: 5.0 mg/kg/injection, schedule: Q02DX009 (ip), vehicle: Klucel (hydroxypropylcellulose) (HPC), higher = longer survival): 96 % of control
T/C (endpoint: median survival time, dose: 10.0 mg/kg/injection, schedule: Q02DX009 (ip), vehicle: Klucel (hydroxypropylcellulose) (HPC), higher = longer survival): 91 % of control and 101 % of control
T/C (endpoint: median survival time, dose: 20.0 mg/kg/injection, schedule: Q02DX009 (ip), vehicle: Klucel (hydroxypropylcellulose) (HPC), higher = longer survival): 104 % of control
T/C (endpoint: median survival time, dose: 40.0 mg/kg/injection, schedule: Q02DX009 (ip), vehicle: Klucel (hydroxypropylcellulose) (HPC), higher = longer survival): 108 % of control and 120 % of control

Cc1nnc(N)s1
T/C (endpoint: mean tumor weight, dose: 133.0 mg/kg/injection, schedule: Q01DX011 (ip), vehicle: other, higher = larger tumour): 80 % of control
T/C (endpoint: mean tumor weight, dose: 200.0 mg/kg/injection, schedule: Q01DX011 (ip), vehicle: other, higher = larger tumour): 77 % of control
T/C (endpoint: mean tumor weight, dose: 300.0 mg/kg/injection, schedule: Q01DX011 (ip), vehicle: other, higher = larger tumour): 79 % of control

O=NN(CCCl)C(=O)NC1CCS(=O)(=O)C1 (centres undefined) (tested in a mixture with another compound)
T/C (endpoint: median survival time, dose: 11.0 mg/kg/injection, schedule: Q01DX001 (ip), vehicle: saline with Tween-80, higher = longer survival): 88 % of control
T/C (endpoint: median survival time, dose: 16.0 mg/kg/injection, schedule: Q01DX001 (ip), vehicle: saline with Tween-80, higher = longer survival): 100 % of control
T/C (endpoint: median survival time, dose: 30.0 mg/kg/injection, schedule: Q01DX001 (ip), vehicle: saline with Tween-80, higher = longer survival): 92 % of control

COc1cc2nccc3c4ccccc4n(c1=O)c23
T/C [1]: 114 % of control
T/C [2]: 110 % of control
T/C [3]: 120 % of control

CC1=C(/C=C/C(C)=C/C=C/C(C)=C/C=O)C(C)(C)CCC1
T/C (endpoint: median survival time, dose: 16.0 mg/kg/injection, schedule: Q01DX005 (ip), vehicle: DMSO, higher = longer survival): 153 % of control
T/C (endpoint: median survival time, dose: 32.0 mg/kg/injection, schedule: Q01DX005 (ip), vehicle: DMSO, higher = longer survival): 151 % of control

ClCC[N+]12CC[N+](CCCl)(CC1)C2
T/C (endpoint: median survival time, dose: 25.0 mg/kg/injection, schedule: Q01DX009 (ip), vehicle: saline, higher = longer survival): 105 % of control
T/C (endpoint: median survival time, dose: 50.0 mg/kg/injection, schedule: Q01DX009 (ip), vehicle: saline, higher = longer survival): 106 % of control

Cc1ccc(C(=O)/C=C/c2ccccc2O)cc1
T/C (endpoint: median survival time, dose: 37.5 mg/kg/injection, schedule: Q01DX009 (ip), vehicle: Klucel (hydroxypropylcellulose) (HPC), higher = longer survival): 105 % of control
T/C (endpoint: median survival time, dose: 75.0 mg/kg/injection, schedule: Q01DX009 (ip), vehicle: Klucel (hydroxypropylcellulose) (HPC), higher = longer survival): 111 % of control
T/C (endpoint: median survival time, dose: 150.0 mg/kg/injection, schedule: Q01DX009 (ip), vehicle: Klucel (hydroxypropylcellulose) (HPC), higher = longer survival): 108 % of control
T/C (endpoint: median survival time, dose: 300.0 mg/kg/injection, schedule: Q01DX009 (ip), vehicle: Klucel (hydroxypropylcellulose) (HPC), higher = longer survival): 89 % of control

N#C/C(=C\c1ccncc1)c1csc2ccccc12
T/C [1]: 119 % of control
T/C [2]: 97 % of control
T/C (endpoint: median survival time, dose: 400.0 mg/kg/injection, schedule: Q01DX009 (ip), vehicle: Klucel (hydroxypropylcellulose) (HPC), higher = longer survival): 110 % of control

O=C(O)c1c2c(nc3ccccc13)Cc1ccccc1-2
T/C [1]: 99 % of control
T/C [2]: 109 % of control
T/C [3]: 109 % of control

CCCCC(=O)OCC(=O)[C@]1(O)Cc2c(O)c3c(c(O)c2[C@@H](OC2CC(NC(=O)C(F)(F)F)C(O)C(C)O2)C1)C(=O)c1c(OC)cccc1C3=O (some centres undefined)
T/C (endpoint: median survival time, dose: 14.0 mg/kg/injection, schedule: Q01DX009 (ip), vehicle: distilled water + Tween-80, higher = longer survival): 114 % of control
T/C (endpoint: median survival time, dose: 20.0 mg/kg/injection, schedule: Q01DX009 (ip), vehicle: distilled water + Tween-80, higher = longer survival): 123 % of control
T/C (endpoint: median survival time, dose: 54.0 mg/kg/injection, schedule: Q01DX001 (ip), vehicle: distilled water + Tween-80, higher = longer survival): 113 % of control
T/C (endpoint: median survival time, dose: 80.0 mg/kg/injection, schedule: Q01DX001 (ip), vehicle: distilled water + Tween-80, higher = longer survival): 155 % of control
T/C (endpoint: median survival time, dose: 120.0 mg/kg/injection, schedule: Q01DX001 (ip), vehicle: distilled water + Tween-80, higher = longer survival): 158 % of control
